Source: patent US20160297828A1, “SPIROCYCLIC COMPOUNDS CONTAINING SPIRO[INDOLYL-3,1'-PYRROLO[3,4-C]PYRROLE] CORE AND SULPHUR-CONTAINING AMINO ACID RESIDUES” (priority 2013, published 2016)
Several values for one entry are separate records, joined by “and”; a condition that tells them apart may be missing. Equal values may be shown once. Marks after values point to notes of the source that are not given here.

Assays:
[1] = tested on: rats with intracerebral hemorrhage; assay: Neurological deficit (C. P. McGrow stroke-index scale) in rats with intracerebral hemorrhage; assay type: in vivo; details: n = 15
[2] = tested on: neuron-specific enolase (NSE); assay: Neuron-specific enolase (NSE) activity in rats with bilateral carotid occlusion (ELISA); assay type: in vivo; details: BCO; for NSE activity (dynamics of neurodestructive changes): n = 7
Protocol: The derivative of 3,2′-spiro-pyrrolo-2-oxindole was studied in conventionally effective dose of 10 mg/kg […] (iv)—dose that by the results of our previous study provided maximum antihypoxic activity of the SI-86compound. Reference drugs were injected intraperitoneally (ip). […] BCO was made to rats of control pathology and as therapy 0.9% NaCI solution was administered calculated for 2 ml/kg ip.
Pseudooperative rats were exposed to all interventions (anesthesia, skin incision, dissection of vessels) except arteries ligation that leveled traumatic effect of experimental conditions.
To determine neurospecific enolase, specific marker of cerebral ischemia,—to the period (4 th and 21 st day of CVA) in rat's blood was sampled by sagittal sinus puncture (0.2-0.4 ml). NSE activity was measured by ELISA using a set NSE EIA KIT (DAI, USA) on the instrument of the company “Hipson” (Czech Republic).

Acute toxicity in rats = assay type: in vivo; details: rat, in vivo, oral; rats
Protocol: (§1) The acute toxicity study was conducted when administered compounds SI-86 to rats into the stomach at doses of 3500 and 4000 mg/kg. Each dose was tested in 4 animals. The duration of observation of rats after administration of test compound was 2 weeks.

rats [3] = assay: Acute toxicity in rats; assay type: in vivo; details: for Effect (died/total): 2 weeks observation
Protocol: as §1

11β-corticosterone = 11β-corticosterone level in venous blood of pseudo-operated rats (ELISA); assay type: in vivo, Wistar rats; details: pseudo-operated animals + SI-86 10 mg/kg iv
Protocol: Pseudo-operated rats were exposed to all interventions (anesthesia, skin incision, dissection of vessels) except arteries ligation that leveled traumatic impact of experimental conditions.
To determine a corticosterone level (species-specific cortisol analogue in rats, which is also a substrate for 11β-HSD1) in the corresponding period (4 th and 21 st CVA day) in rat by sagittal sinus puncture, blood was sampled (0.2-0.4 ml). The cortisol level was measured by ELISA using a CORTICOSTERONEE KIT set (Germany) on the instrument of the company “Hipson” (Czech Republic).
To establish the effect of course administration of SI-86 compound on steroid synthesis in animals without cerebral ischemia the dynamics of its level in pseudo-operated rats in the same period was additionally determined.

rats [4] = assay: Acute normobaric hypoxic hypoxia with hypercapnia (ANHHH), life duration; assay type: in vivo; details: preventive administration; SI-86 and SI-108 10 mg/kg iv, mexydol 100 mg/kg ip
Protocol: The study of antihypoxic activity of 10 original derivatives of 3,2′-spiro-pyrrolo-2-oxindole was conducted on models of acute normobaric hypoxic hypoxia with hypercapnia (ANHHH) and acute asphyxia. ANHHH was modeled by means of rat arrangement into isolated pressure compartments (0.001 m^3). The observation conducted until the death of the animals. The antihypoxic activity was assessed by life duration (in minutes) in relation to the control taken as 100%, by the formula AA=tt/tk×100%, wherein AA—antihypoxic activity (%), tt—life duration of test animals, tc—life duration of control animals.
The preliminary screening of test substances was performed on ANHHH model. All derivatives were administered in the same dose of 10 mg/kg […] (iv) 1 hour prior to pathological state modeling. […] The effectiveness of a leader compound was evaluated at doses 5; 10 and 15 mg/kg iv. Mexydol was chosen as a reference drug having antihypoxic action in combination with antioxidant and membrane protective activity, which is successfully used in patients with CVA and IM. Mexydol was administered intraperitoneally (ip) at a dose of 100 mg/kg according to similar scheme.

## CSCC[C@@H]1N[C@@]2(C(=O)Nc3ccccc32)[C@@H]2C(=O)N(c3ccc(C)cc3)C(=O)[C@H]12 [SI-86, 5′-(4-Methylphenyl)-3′-[2-(methylthio)ethyl]-3a′,6a′-dihydro-2′H-spiro[indole-3,1′-pyrrolo[3,4-c]pyrrol]-2,4′,6′(1H,3′H,5′H)-trione]
[1]; day 4, SI-86 10 mg/kg iv, mexydol 100, citocoline 250, actovegin 16, pyracetam 400 mg/kg ip
  neurological deficit, average point under C. P. McGrow scale: 4.1 points and 4.10 ± 0.32°*^#•$ points
[1]; day 21, same doses
  neurological deficit, average point under C. P. McGrow scale: 3.1 points and 3.10 ± 0.33°*^#&$ points
[2]; 96 hours
  enzyme activity decreased in relation to the control pathology group: 2.03 times
[2]; 21 days
  enzyme activity decreased in relation to the control pathology group: 3.84 times
[2]; acute period
  effectiveness in reducing NSE better than citocoline: 1.6 times
[2]; day 4, SI-86 10 mg/kg iv, citocoline 250 mg/kg ip
  NSE activity (dynamics of neurodestructive changes): 0.61 ± 0.004*^#•
[2]; day 21, same doses
  NSE activity (dynamics of neurodestructive changes): 0.204 ± 0.015*^#•
[2]; recovery period
  effectiveness in reducing NSE better than citocoline: 1.9 times
Acute toxicity in rats
  LD50 at 2 weeks: 501 to 5000 mg/kg
Rats [3]; 3500 mg/kg single administration
  Effect (died/total): all animals survived and 0/4
Rats [3]; 4000 mg/kg
  rats died: 25%
Rats [3]; 4000 mg/kg single administration
  Effect (died/total): 1/4
Rats [3]; rat, in vivo
  toxicity class according to Hodge and Sterner classification: IV class of toxicity
11β-corticosterone; day 4
  11β-corticosterone level in venous blood: 81.95 ± 0.61 ng/mL
  dynamics in percents in relation to the group of pseudo-operated animals: (−31.9%)
11β-corticosterone; day 21
  11β-corticosterone level in venous blood: 83.02 ± 4.25 ng/mL
  dynamics in percents in relation to the group of pseudo-operated animals: (−10.2%)
Rats [4]
  increase of life duration in rats in relation to control: 33.7%
